Experiments:
[1] = stability under ethylene oxide sterilization, heating, and aging with paclitaxel; conditions: formulated with paclitaxel
[2] = target: albumin (Homo sapiens, UniProt P02768); conditions: cited from earlier work
[3] = BSA added; cited from earlier work
[4] = urethral stricture patients; 1 hour, 3 hours, 5 hours, 10 hours, 24 hours, and 5 days

albumin, sequence (P02768 25-609): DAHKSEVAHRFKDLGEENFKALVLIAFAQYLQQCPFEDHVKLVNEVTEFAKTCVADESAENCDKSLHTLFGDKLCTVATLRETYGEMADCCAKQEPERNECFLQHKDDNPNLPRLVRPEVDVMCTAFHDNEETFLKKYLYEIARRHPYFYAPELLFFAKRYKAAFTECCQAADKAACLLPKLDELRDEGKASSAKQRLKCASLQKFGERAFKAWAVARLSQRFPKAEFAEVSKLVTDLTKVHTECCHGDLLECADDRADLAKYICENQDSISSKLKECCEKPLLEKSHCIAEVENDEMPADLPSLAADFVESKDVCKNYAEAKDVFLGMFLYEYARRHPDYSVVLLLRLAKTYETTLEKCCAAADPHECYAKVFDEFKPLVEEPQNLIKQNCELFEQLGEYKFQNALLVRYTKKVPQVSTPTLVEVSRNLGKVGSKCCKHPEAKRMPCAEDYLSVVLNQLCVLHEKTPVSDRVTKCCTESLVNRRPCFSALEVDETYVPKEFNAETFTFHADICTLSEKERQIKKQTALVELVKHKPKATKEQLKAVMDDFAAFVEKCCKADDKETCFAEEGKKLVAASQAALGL

O=C(O)c1ccccc1 [benzoic acid]
stability under ethylene oxide sterilization, heating, and aging process [1]: not stable

CO[C@H]1C[C@@H]2CC[C@@H](C)[C@@](O)(O2)C(=O)C(=O)N2CCCC[C@H]2C(=O)O[C@H]([C@H](C)C[C@@H]2CC[C@@H](O)[C@H](OC)C2)CC(=O)[C@H](C)/C=C(\C)[C@@H](O)[C@@H](OC)C(=O)[C@H](C)C[C@H](C)/C=C/C=C/C=C/1C [sirolimus]
share of protein binding to albumin ([2]; bound primarily to albumin): 97%
protein bound [2]: 92%

CC(=O)O[C@H]1C(=O)[C@@]2(C)[C@H]([C@H](OC(=O)c3ccccc3)[C@]3(O)C[C@H](OC(=O)[C@H](O)[C@@H](NC(=O)c4ccccc4)c4ccccc4)C(C)=C1C3(C)C)[C@]1(OC(C)=O)CO[C@@H]1C[C@@H]2O [paclitaxel]
solubility increase in PBS with the addition of BSA [3]: over 20 fold
Human plasma paclitaxel concentration on average [4]: below the level of quantification

Source: US12721816B2, “Polymer-encapsulated drug particles” (Tonic Medical, Inc., priority 2020, dated 2026)
